Measurements reported in article PMC12472352, “The Activation of Cytochrome P450 2C9 Is Facilitated by the Coenzyme Forms of Vitamin B2” (Molecules, 2025).

Key:
[1] = molecular target: T1, cytochrome P450 2C9 (CYP2C9) (Homo sapiens, UniProt P11712); test: UV-vis absorption spectral titration (Soret peak) of purified recombinant CYP2C9; also electrochemical activation; assay type: binding
[2] = molecular target: T1, cytochrome P450 2C9 (CYP2C9); test: electrochemical diclofenac […]'-hydroxylation by purified CYP2C9 with FMN ([…]); relative activity […]; assay type: biochemical
[3] = molecular target: T1, cytochrome P450 2C9 (CYP2C9); test: amperometric titration (KM) on CYP2C9 + FMN electrode; […]'-hydroxydiclofenac formation by square-wave voltammetry; assay type: biochemical

T1 sequence (P11712 whole entry): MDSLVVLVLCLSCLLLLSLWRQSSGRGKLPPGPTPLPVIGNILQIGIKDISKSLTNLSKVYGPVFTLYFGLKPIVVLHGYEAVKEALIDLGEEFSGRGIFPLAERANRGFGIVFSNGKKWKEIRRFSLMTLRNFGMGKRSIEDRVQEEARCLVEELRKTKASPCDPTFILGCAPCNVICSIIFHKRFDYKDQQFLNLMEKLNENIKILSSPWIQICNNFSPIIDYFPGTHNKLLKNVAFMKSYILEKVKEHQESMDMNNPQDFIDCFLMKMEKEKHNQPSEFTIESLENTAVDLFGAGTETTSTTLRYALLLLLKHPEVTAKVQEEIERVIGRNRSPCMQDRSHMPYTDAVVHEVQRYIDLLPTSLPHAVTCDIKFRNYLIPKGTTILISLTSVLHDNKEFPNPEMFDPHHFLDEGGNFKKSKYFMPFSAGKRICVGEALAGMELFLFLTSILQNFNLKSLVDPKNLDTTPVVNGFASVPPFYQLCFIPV

## Cc1cc2nc3c(=O)[nH]c(=O)nc-3n(C[C@H](O)[C@H](O)[C@H](O)COP(=O)(O)OP(=O)(O)OC[C@H]3O[C@@H](n4cnc5c(N)ncnc54)[C@H](O)[C@@H]3O)c2cc1C [FAD]
[1]
  Kd: 174 ± 52 µM

## Cc1cc2nc3c(=O)[nH]c(=O)nc-3n(C[C@H](O)[C@H](O)[C@H](O)COP(=O)(O)O)c2cc1C [FMN]
[2]
  Relative Activity, %: 113 ± 6%

## O=C(O)Cc1ccccc1Nc1c(Cl)cccc1Cl [diclofenac, 2-[2-(2,6-dichloroanilino)-phenyl]acetic acid]
[3]
  KM, M: (5.49 ± 0.52) ×10^−5 M
